# Patent US11414424B2, “Cardiac sarcomere inhibitors” (Cytokinetics, Inc., priority 2018, dated 2022)
# System: bovine cardiac myofibrils
# Assay: Myofibril assay: PK/LDH-coupled steady-state ATPase activity of skinned bovine cardiac myofibrils
# Type: biochemical
# Settings: Ca2+ activating to 75% of maximal rate
# Protocol: To evaluate the effect of compounds on the ATPase activity of full-length cardiac myosin in the context of the native sarcomere, skinned myofibril assays were performed. Bovine cardiac myofibrils were obtained by homogenizing bovine cardiac left ventricular tissue in the presence of a detergent such as triton X-100. Such treatment removes membranes and a majority of the soluble cytoplasmic proteins but leaves intact the cardiac sarcomeric acto-myosin apparatus. Myofibril preparations retain the ability to hydrolyze ATP in a Ca^2+ regulated manner. ATPase activities of such myofibril preparations in the presence and absence of compounds were assayed at Ca^2+ concentrations activating to a defined fraction of the maximal rate (i.e., […], 75%). Small molecule agents were assessed for their ability to inhibit the steady-state ATPase activity of bovine cardiac myofibrils using pyruvate kinase and lactate dehydrogenase (PK/LDH)-coupled enzyme system. This assay regenerates myosin-produced ADP into ATP by oxidizing NADH, producing an absorbance change at 340 nm. Prior to testing small molecule agents, the bovine cardiac myofibrils were assessed for their calcium responsiveness and the calcium concentration that achieves either a 50% (pCa50) or 75% (pCa75) activation of the myofibril system was chosen as the final condition for assessing the inhibitory activity of the small molecule agents. All enzymatic activity was measured in a buffered solution containing 12 mM PIPES (piperazine-N,N′-bis(2-ethanesulfonic acid), 2 mM magnesium chloride at pH 6.8 (PM 12 buffer). Final assay conditions were 1 mg/mL of bovine cardiac myofibrils, 4 U/mL pyruvate kinase, 6 U/mL lactate dehydrogenase, 50 μM ATP, 0.1 mg/mL BSA (bovine serum albumin), 10 ppm antifoam, 1 mM DTT, 0.5 mM NADH, 1.5 mM PEP, 0.6 mM EGTA, and an amount of CaCl2 sufficient to achieve either 50% or 75% activation of the myofibril ATPase activity. Results for compounds tested are provided in Table A. Compounds tested were prepared in accordance with the synthetic procedures described herein.
row,SMILES,CDMF75 IC15 [µM]
1,"CC(C)N1CC(=O)N(Cc2ccc(Cl)cc2)C(c2ccc(Cl)cc2)C1=O (racemic) [Compound 288, 3-(4-chlorophenyl)-4-[(4-chlorophenyl)methyl]-1-(propan-2-yl)piperazine-2,5-dione]",1.8
2,"COc1cnc(N2CC(=O)N(Cc3ccc(C(F)(F)F)cc3)C(C3COC3)C2=O)c(F)c1 (racemic) [Compound 703, 1-(3-fluoro-5-methoxypyridin-2-yl)-3-(oxetan-3-yl)-4-(4-(trifluoromethyl)benzyl)piperazine-2,5-dione]",10.1
3,"CC(C)N1CC(=O)N(Cc2ccc(Cl)cc2)C(c2ccc(Cl)cc2)C1=O (single isomer, unassigned) [Compound 288B, 3-(4-chlorophenyl)-4-[(4-chlorophenyl)methyl]-1-(propan-2-yl)piperazine-2,5-dione]",>39
4,"CC(C)N1CC(=O)N(Cc2ccc(Cl)cc2)C2(CCN(C(N)=O)C2)C1=O (single isomer, unassigned) [Compound 367A, 6-[(4-chlorophenyl)methyl]-7,10-dioxo-9-(propan-2-yl)-2,6,9-triazaspiro[4.5]decane-2-carboxamide]",8.8
5,"O=C1CN(c2ccc(Cl)cc2F)C(=O)[C@]2(C[C@@H](O)C2)N1Cc1ccc(C(F)(F)F)cc1 (single isomer, unassigned) [Compound 483B]",0.7
6,"N#Cc1ccc(N2CC(=O)N(Cc3ccc(Cl)cc3)[C@]3(C[C@H](C(=O)N4CCC(O)CC4)C3)C2=O)c(F)c1 (single isomer, unassigned) [Compound 492B]",0.4
7,"Cc1nc([C@H]2C[C@]3(C2)C(=O)N(C(C)C)CC(=O)N3Cc2ccc(C(F)(F)F)cc2)oc1C (single isomer, unassigned) [Compound 500B]",35.5
8,"CC(=O)NCC1(C)C(=O)N(c2ncc(Cl)cc2F)CC(=O)N1Cc1ccc(C(F)(F)F)cc1 (single isomer, unassigned) [Compound 630A, N-((4-(5-chloro-3-fluoropyridin-2-yl)-2-methyl-3,6-dioxo-1-(4-(trifluoromethyl)benzyl)piperazin-2-yl)methyl)acetamide]",9.7
9,"CC(=O)NCC1(C)C(=O)N(c2ncc(Cl)cc2F)CC(=O)N1Cc1ccc(C(F)(F)F)cc1 (single isomer, unassigned) [Compound 630B, N-((4-(5-chloro-3-fluoropyridin-2-yl)-2-methyl-3,6-dioxo-1-(4-(trifluoromethyl)benzyl)piperazin-2-yl)methyl)acetamide]",>39
10,"Cc1cnc(N2CC(=O)N(Cc3ccc(C(F)(F)F)cc3)C(C3COC3)C2=O)c(F)c1 (single isomer, unassigned) [Compound 691A, 1-(3-fluoro-5-methylpyridin-2-yl)-3-(oxetan-3-yl)-4-(4-(trifluoromethyl)benzyl)piperazine-2,5-dione]",12.06
11,"O=C1C(C2CC(O)C2)N(Cc2ccc(C(F)(F)F)cc2)C(=O)CN1c1ncc(Cl)cc1F (single isomer, unassigned) [Compound 740B, 1-(5-chloro-3-fluoropyridin-2-yl)-3-(3-hydroxycyclobutyl)-4-(4-(trifluoromethyl)benzyl)piperazine-2,5-dione]",0.97
12,"O=C1C(C2CC(O)C2)N(Cc2ccc(C(F)(F)F)cc2)C(=O)CN1c1ncc(Cl)cc1F (single isomer, unassigned) [Compound 740C, 1-(5-chloro-3-fluoropyridin-2-yl)-3-(3-hydroxycyclobutyl)-4-(4-(trifluoromethyl)benzyl)piperazine-2,5-dione]",>39
13,"O=C1C(C2CC(O)C2)N(Cc2ccc(C(F)(F)F)cc2)C(=O)CN1c1ncc(Cl)cc1F (single isomer, unassigned) [Compound 740D, 1-(5-chloro-3-fluoropyridin-2-yl)-3-(3-hydroxycyclobutyl)-4-(4-(trifluoromethyl)benzyl)piperazine-2,5-dione]",>39
14,"O=C1C(C2COC2)N(Cc2ccc(C(F)(F)F)cc2)C(=O)CN1c1ncc(Cl)cc1F (single isomer, unassigned) [Compound 861B, 1-(5-chloro-3-fluoropyridin-2-yl)-3-(oxetan-3-yl)-4-(4-(trifluoromethyl)benzyl)piperazine-2,5-dione]",5.8

# Results, then the molecule that gave them:
row,CDMF75 IC15 [µM],SMILES
1,18.7,"CC(=O)NCC1(C)C(=O)N(c2ncc(Cl)cc2F)CC(=O)N1Cc1ccc(C(F)(F)F)cc1 (racemic) [Compound 630, N-((4-(5-chloro-3-fluoropyridin-2-yl)-2-methyl-3,6-dioxo-1-(4-(trifluoromethyl)benzyl)piperazin-2-yl)methyl)acetamide]"
2,27.6,"Cc1cnc(N2CC(=O)N(Cc3ccc(C(F)(F)F)cc3)C(C3COC3)C2=O)c(F)c1 (racemic) [Compound 691, 1-(3-fluoro-5-methylpyridin-2-yl)-3-(oxetan-3-yl)-4-(4-(trifluoromethyl)benzyl)piperazine-2,5-dione]"
3,>39,"CC(C)N1CC(=O)N(Cc2ccc(Cl)cc2)C2(CCN(C(N)=O)C2)C1=O (single isomer, unassigned) [Compound 367B, 6-[(4-chlorophenyl)methyl]-7,10-dioxo-9-(propan-2-yl)-2,6,9-triazaspiro[4.5]decane-2-carboxamide]"
4,>39,"CC(C)N1CC(=O)N(Cc2ccc(Cl)cc2)C2(CCN(c3ccccn3)C2)C1=O (single isomer, unassigned) [Compound 373B, 6-[(4-chlorophenyl)methyl]-9-(propan-2-yl)-2-(pyridin-2-yl)-2,6,9-triazaspiro[4.5]decane-7,10-dione]"
5,0.2,"COC(=O)[C@H]1C[C@]2(C1)C(=O)N(c1ccc(C#N)cc1F)CC(=O)N2Cc1ccc(Cl)cc1 (single isomer, unassigned) [Compound 488B]"
6,>39,"Cc1cnc(N2CC(=O)N(Cc3ccc(C(F)(F)F)cc3)C(C3COC3)C2=O)c(F)c1 (single isomer, unassigned) [Compound 691B, 1-(3-fluoro-5-methylpyridin-2-yl)-3-(oxetan-3-yl)-4-(4-(trifluoromethyl)benzyl)piperazine-2,5-dione]"
7,4.0,"COc1cnc(N2CC(=O)N(Cc3ccc(C(F)(F)F)cc3)C(C3COC3)C2=O)c(F)c1 (single isomer, unassigned) [Compound 703A, 1-(3-fluoro-5-methoxypyridin-2-yl)-3-(oxetan-3-yl)-4-(4-(trifluoromethyl)benzyl)piperazine-2,5-dione]"
8,37.2,"COc1cnc(N2CC(=O)N(Cc3ccc(C(F)(F)F)cc3)C(C3COC3)C2=O)c(F)c1 (single isomer, unassigned) [Compound 703B, 1-(3-fluoro-5-methoxypyridin-2-yl)-3-(oxetan-3-yl)-4-(4-(trifluoromethyl)benzyl)piperazine-2,5-dione]"
9,1.1,"O=C1C(C2CC(O)C2)N(Cc2ccc(C(F)(F)F)cc2)C(=O)CN1c1ncc(Cl)cc1F (single isomer, unassigned) [Compound 740A, 1-(5-chloro-3-fluoropyridin-2-yl)-3-(3-hydroxycyclobutyl)-4-(4-(trifluoromethyl)benzyl)piperazine-2,5-dione]"
10,5.3,"O=C1C(CO)N(Cc2ccc(C(F)(F)F)cc2)C(=O)CN1c1ncc(Cl)cc1F (single isomer, unassigned) [Compound 857A, 1-(5-chloro-3-fluoropyridin-2-yl)-3-(hydroxymethyl)-4-(4-(trifluoromethyl)benzyl)piperazine-2,5-dione]"
11,>39,"O=C1C(CO)N(Cc2ccc(C(F)(F)F)cc2)C(=O)CN1c1ncc(Cl)cc1F (single isomer, unassigned) [Compound 857B, 1-(5-chloro-3-fluoropyridin-2-yl)-3-(hydroxymethyl)-4-(4-(trifluoromethyl)benzyl)piperazine-2,5-dione]"
12,0.6,"CCOC(=O)C1CC2(C1)C(=O)N(c1ncc(Cl)cc1F)CC(=O)N2Cc1ccc(C(F)(F)F)cc1 (single isomer, unassigned) [Compound 859A, ethyl 8-(5-chloro-3-fluoropyridin-2-yl)-6,9-dioxo-5-(4-(trifluoromethyl)benzyl)-5,8-diazaspiro[3.5]nonane-2-carboxylate]"
13,0.3,"CCOC(=O)C1CC2(C1)C(=O)N(c1ncc(Cl)cc1F)CC(=O)N2Cc1ccc(C(F)(F)F)cc1 (single isomer, unassigned) [Compound 859B, ethyl 8-(5-chloro-3-fluoropyridin-2-yl)-6,9-dioxo-5-(4-(trifluoromethyl)benzyl)-5,8-diazaspiro[3.5]nonane-2-carboxylate]"
14,4.4,"O=C1C(C2CC(O)C2)N(Cc2ccc(F)cc2)C(=O)CN1c1ccc(Cl)cc1F (single isomer, unassigned) [Compound 866A, 1-(4-chloro-2-fluorophenyl)-4-(4-fluorobenzyl)-3-(3-hydroxycyclobutyl)piperazine-2,5-dione]"
